This note sets out measurements from patent publication US11160797B2, “Pyridinone derivatives and their use as selective ALK-2 inhibitors” (NOVARTIS AG, priority 2017, dated 2021).

Like-named read-outs stand apart in the source and are kept apart here.

The target in assay [1] is T1, wild-type ALK2 (aa172-499) (Homo sapiens (Human), UniProt Q04771). Briefly: Caliper biochemical peptide phosphorylation assay, ALK2.
Assay [2] addresses ALK2 FOP mutant (aa172-499 R206H) (Homo sapiens (Human), UniProt Q04771, R206H). Description: Caliper biochemical peptide phosphorylation assay, ALK2 FOP.
In assay [3] the target is T1, wild-type ALK2 (aa172-499). Briefly: ADPGlo biochemical autophosphorylation assay, ALK2. To be noted: 15 uM ATP.
In another assay the target is ALK5 (aa162-503) (Homo sapiens (Human), UniProt P36897). Briefly: Caliper biochemical peptide phosphorylation assay, ALK5. Particulars: 15 uM ATP. The text has this:
For all biochemical assays, human recombinant proteins were expressed in and purified from baculo virus transfected insect cells. The constructs comprised the GS-domain and kinase domain of wild-type ALK2 (aa172-499), ALK2 FOP mutant (aa172-499 R206H), ALK3 (aa198-525), ALK5 (aa162-503) and ALK6 (aa168-495).
A kinase selectivity panel which measures substrate peptide phosphorylation was set-up for wild-type ALK2 (aa172-499), ALK2 FOP mutant (aa172-499 R206H), ALK1 (aa166-493), ALK5 (aa162-503) and ALK6 (aa168-495). The technology used for the described assay is based on the separation and quantification of substrate and product in an electrical field. In the course of the kinase reaction the peptide substrate is phosphorylated by a kinase. […] Due to this difference in charge the phosphorylated und unphosphorylated peptides migrate with different velocities in an electrical field.
In the applied method, this separation takes place inside a chip that contains a complex capillary system for simultaneous analysis of 12 samples (“LabChip EZ Reader 12-sipper chip”, Caliper Technologies Corp., Mountain View, USA). In order to allow the detection and quantification of the peptides in the capillary system, the peptides carry a fluorescent label (fluorescein). With this label the peptides can be quantified by fluorescence intensity through the instruments laser and detection system (LC3000, Caliper Life Sciences).
The assays were performed in 384-well, low volume microtiter assay plates in a final reaction volume of 9 ul. Dose-response curves were generated by incubating 10 nM of each kinase together with 2 uM of the fluorescently labeled substrate peptide 5-Fluo-Ahx-[…]-T-[…]-amid (10 mM stock solution in DMSO) in 50 mM Hepes pH 7.5, 0.02% Tween 20, 0.02% BSA, 1 mM DTT, 10 uM Na3VO4, 10 mM ß-Glycerolphosphate, 1 mM MgCl2, 12 mM MnCl2 (ALK1 and ALK6 7 mM) and 15 uM ATP for 60 min at 30° C. in the presence or absence of compound diluted in DMSO.
Kinase reactions were terminated by adding 15 ul STOP buffer (100 mM HEPES pH 7.5, 5% DMSO, 0.1% Caliper coating reagent, 10 mM EDTA, and 0.015% Brij35.
Plates with terminated kinase reactions were transferred to the Caliper LC3000 workstation (Caliper Technologies Corp., Mountain View, USA) for reading. The relative amount of phosphorylated peptide r, was calculated using the heights of the substrate peak, s, and the product peak, p:r=p/(p+s).
IC50 values for a given antagonist correspond to the compound concentration needed to inhibit half of the maximum signal of the kinase reaction.

The target in the next assay is ALK1 (aa166-493) (Homo sapiens (Human), UniProt P37023). Briefly: Caliper biochemical peptide phosphorylation assay, ALK1. Particulars: 15 uM ATP.
ALK1 (aa166-493), sequence (P37023 166-493): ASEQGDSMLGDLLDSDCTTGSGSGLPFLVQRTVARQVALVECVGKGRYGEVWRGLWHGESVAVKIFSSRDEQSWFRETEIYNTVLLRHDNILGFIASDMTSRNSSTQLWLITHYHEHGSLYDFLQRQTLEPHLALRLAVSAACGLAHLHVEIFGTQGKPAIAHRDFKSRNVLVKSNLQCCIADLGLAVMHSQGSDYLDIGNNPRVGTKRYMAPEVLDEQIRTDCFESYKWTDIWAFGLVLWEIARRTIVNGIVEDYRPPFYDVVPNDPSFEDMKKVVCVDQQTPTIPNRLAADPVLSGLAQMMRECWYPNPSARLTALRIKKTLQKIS
The mark [4] stands for this setting: Caliper peptide phosphorylation, 15 uM ATP, read-out: ALK2 IC50.
The mark [5] stands for this setting: Caliper peptide phosphorylation, R206H, 15 uM ATP, read-out: ALK2 FOP EPK IC50.

ALK5 (aa162-503), sequence (P36897 162-503): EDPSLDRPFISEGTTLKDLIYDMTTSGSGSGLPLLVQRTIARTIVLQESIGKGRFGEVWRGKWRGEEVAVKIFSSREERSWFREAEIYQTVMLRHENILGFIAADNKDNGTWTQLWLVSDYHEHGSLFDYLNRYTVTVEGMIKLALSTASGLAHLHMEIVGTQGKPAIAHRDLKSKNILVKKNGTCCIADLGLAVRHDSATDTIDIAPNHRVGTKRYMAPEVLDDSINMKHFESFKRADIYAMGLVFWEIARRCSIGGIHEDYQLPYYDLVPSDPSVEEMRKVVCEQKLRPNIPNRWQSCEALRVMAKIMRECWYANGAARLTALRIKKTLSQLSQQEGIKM
ALK2 FOP mutant (aa172-499 R206H), sequence (Q04771 172-499 R206H): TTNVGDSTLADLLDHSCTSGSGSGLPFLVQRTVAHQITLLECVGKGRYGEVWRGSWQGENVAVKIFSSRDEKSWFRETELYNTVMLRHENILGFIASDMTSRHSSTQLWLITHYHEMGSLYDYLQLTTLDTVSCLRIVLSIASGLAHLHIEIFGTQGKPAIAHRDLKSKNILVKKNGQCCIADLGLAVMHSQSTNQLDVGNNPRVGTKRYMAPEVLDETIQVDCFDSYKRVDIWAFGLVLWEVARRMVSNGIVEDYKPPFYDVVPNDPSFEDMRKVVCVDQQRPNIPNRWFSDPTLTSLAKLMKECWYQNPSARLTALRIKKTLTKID
T1 sequence (Q04771 172-499): as the sequence (Q04771 172-499 R206H) above, with H35R counted along it

`CC(C)n1cc(-c2cncc(-c3cnc4c(c3)C(C)(C)C(=O)N4C)c2)ccc1=O` [5-(1′-isopropyl-6′-oxo-1′,6′-dihydro-[3,3′-bipyridin]-5-yl)-1,3,3-trimethyl-1H-pyrrolo[2,3-b]pyridin-2(3H)-one]: the IC50 in assay [1] (read-out: IC50 in the ALK2 assay) and in assay [2] (read-out: IC50 in the ALK2-FOP assay) was greater than 1000 nM in each case.

`CCC(CC)n1cc(-c2cncc(-c3ccc4c(c3)CC(=O)N4C)c2)ccc1=O` [Example 4, 1-methyl-5-(6′-oxo-1′-(pentan-3-yl)-1′,6′-dihydro-[3,3′-bipyridin]-5-yl)indolin-2-one]: the IC50 in assay [3] was 1300 nM; in assay [1] (setting [4]), 600 nM; in assay [2] (setting [5]), 650 nM; at ALK5 (aa162-503) it was greater than 10000 nM.

Consider `CCC(C)n1cc(-c2cncc(-c3ccc4c(c3)CC(=O)N4C)c2)ccc1=O` (centres unmarked) [Example 7, 5-(1′-(sec-butyl)-6′-oxo-1′,6′-dihydro-[3,3′-bipyridin]-5-yl)-1-methylindolin-2-one], for which the half-maximal inhibitory concentration (IC50) is 230 nM in assay [3]; 190 nM in assay [1] (setting [4]); 170 nM in assay [2] (setting [5]); 1200 nM against ALK1 (aa166-493); 4400 nM on ALK5 (aa162-503).

As for `CC(C)n1cc(-c2cncc(-c3ccc4c(c3)N(C)C(=O)C4)c2)ccc1=O` [Example 26, 6-(1′-Isopropyl-6′-oxo-1′,6′-dihydro-[3,3′-bipyridin]-5-yl)-1-methylindolin-2-one], the 50% inhibitory concentration (IC50) in assay [3] was 710 nM; in assay [1] (setting [4]) it was 470 nM; in assay [2] (setting [5]), 590 nM; against ALK5 (aa162-503), greater than 10000 nM.

As for `COCCN1C(=O)Cc2cc(-c3cncc(-c4ccc(=O)n(C(C)C)c4)c3)cnc21` [Example 27, 5-(1′-Isopropyl-6′-oxo-1′,6′-dihydro-[3,3′-bipyridin]-5-yl)-1-(2-methoxyethyl)-1H-pyrrolo[2,3-b]pyridin-2(3H)-one], the half-inhibitory concentration (IC50) in assay [3] is 1700 nM; in assay [1] (setting [4]) it was 880 nM; in assay [2] (setting [5]), 1200 nM; against ALK1 (aa166-493) it was greater than 10000 nM; against ALK5 (aa162-503) it was greater than 10000 nM.

Consider `CC(C)n1cc(-c2cncc(-c3ccc4c(c3)CCC(=O)N4C)c2)ccc1=O` [Example 28, 6-(1′-Isopropyl-6′-oxo-1′,6′-dihydro-[3,3′-bipyridin]-5-yl)-1-methyl-3,4-dihydroquinolin-2(1H)-one], for which the IC50 in assay [3] is 31 nM; in assay [1] (setting [4]), 30 nM; in assay [2] (setting [5]), 20 nM; at ALK5 (aa162-503), 580 nM.

Consider `COCCN1C(=O)Cc2cc(-c3cncc(-c4ccc(=O)n(C(C)C)c4)c3)ccc21` [Example 29, 5-(1′-Isopropyl-6′-oxo-1′,6′-dihydro-[3,3′-bipyridin]-5-yl)-1-(2-methoxyethyl)indolin-2-one], for which the half-maximal inhibitory concentration (IC50) in assay [3] stood at 140 nM; in assay [1] (setting [4]), 130 nM; in assay [2] (setting [5]), 150 nM; at ALK1 (aa166-493), 1600 nM; against ALK5 (aa162-503) it was 6800 nM.

With `COCCCN1C(=O)Cc2cc(-c3cncc(-c4ccc(=O)n(C(C)C)c4)c3)ccc21` [Example 30, 5-(1′-isopropyl-6′-oxo-1′,6′-dihydro-[3,3′-bipyridin]-5-yl)-1-(3-methoxypropyl)indolin-2-one], the figures for the 50% inhibitory concentration (IC50) against ALK1 (aa166-493) and against ALK5 (aa162-503) were 1500 nM and 6000 nM, respectively.

Regarding `CC(C)n1cc(-c2cncc(-c3ccc4c(c3)NC(=O)C4(C)C)c2)ccc1=O` [Example 32, 6-(1′-isopropyl-6′-oxo-1′,6′-dihydro-[3,3′-bipyridin]-5-yl)-3,3-dimethylindolin-2-one], the half-inhibitory concentration (IC50) against ALK1 (aa166-493) turned out to be 280 nM; at ALK5 (aa162-503), 690 nM.

On to `CC(C)n1cc(-c2cncc(-c3ccc4c(c3)CC(=O)N4C)c2F)ccc1=O` [Example 52, 5-(4-fluoro-1′-isopropyl-6′-oxo-1′,6′-dihydro-[3,3′-bipyridin]-5-yl)-1-methylindolin-2-one], for which the IC50 in assay [3] is 690 nM; in assay [1] (setting [4]) it was 380 nM; in assay [2] (setting [5]) it was 380 nM; on ALK1 (aa166-493), 3600 nM; against ALK5 (aa162-503), greater than 10000 nM.

What is called IC50 is the concentration that inhibits the measured activity by half.
